The results in this text go back to BindingDB's records for doi:10.1002/cbic.201600636 (The University of Sydney, 2017).

One experiment addresses Lipoxygenase (Solanum tuberosum, UniProt O49150). Kind of experiment: Colorimetric 5-LO Assay. The procedure: A colorimetric 5-LO assay kit (Lipoxygenase Inhibitor Screening Assay Kit) and potato 5-LO isolate were purchased from Cayman Chemicals (Ann Arbor, MI). 5-LO inhibition assay was performed according to the instruction manuals. All samples were dissolved in dimethyl sulfoxide, except for 1 and 2, which were dissolved in the assay buffers provided. All assays were performed in triplicate, and errors were calculated as standard deviation.

For the next experiment, the target named is Histone deacetylase 1 (Homo sapiens, UniProt Q13547). Briefly: Fluorometric Activity Assay. The procedure: A FLUOR DE LYS fluorometric activity assay kit (HDAC source: HeLa cell nuclear extract) and a FLUOR DE LYS HDAC1 fluorometric drug discovery assay kit (HDAC source: human recombinant HDAC1) were purchased from Enzo Life Sciences (Farmingdale, NY). HDAC inhibition assay was performed according to the instruction manuals. All samples were dissolved in dimethyl sulfoxide, except for 1 and 2, which were dissolved in the assay buffers provided. All assays were performed in triplicate, and errors were calculated as standard deviation.
Histone deacetylase 1, sequence (Q13547 whole entry): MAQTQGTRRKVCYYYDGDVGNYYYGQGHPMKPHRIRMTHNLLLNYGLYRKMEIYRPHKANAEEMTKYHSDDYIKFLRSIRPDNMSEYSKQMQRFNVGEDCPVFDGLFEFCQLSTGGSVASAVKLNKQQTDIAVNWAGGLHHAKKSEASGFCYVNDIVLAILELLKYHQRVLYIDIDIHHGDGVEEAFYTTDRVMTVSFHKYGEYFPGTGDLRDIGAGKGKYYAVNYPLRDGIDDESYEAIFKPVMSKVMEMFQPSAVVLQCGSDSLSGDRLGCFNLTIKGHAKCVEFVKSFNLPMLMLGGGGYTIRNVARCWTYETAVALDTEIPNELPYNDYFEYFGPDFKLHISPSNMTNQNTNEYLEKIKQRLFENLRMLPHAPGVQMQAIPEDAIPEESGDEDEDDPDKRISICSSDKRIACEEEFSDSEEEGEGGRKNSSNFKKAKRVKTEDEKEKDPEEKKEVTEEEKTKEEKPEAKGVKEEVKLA

Lipoxygenase, sequence (O49150 whole entry): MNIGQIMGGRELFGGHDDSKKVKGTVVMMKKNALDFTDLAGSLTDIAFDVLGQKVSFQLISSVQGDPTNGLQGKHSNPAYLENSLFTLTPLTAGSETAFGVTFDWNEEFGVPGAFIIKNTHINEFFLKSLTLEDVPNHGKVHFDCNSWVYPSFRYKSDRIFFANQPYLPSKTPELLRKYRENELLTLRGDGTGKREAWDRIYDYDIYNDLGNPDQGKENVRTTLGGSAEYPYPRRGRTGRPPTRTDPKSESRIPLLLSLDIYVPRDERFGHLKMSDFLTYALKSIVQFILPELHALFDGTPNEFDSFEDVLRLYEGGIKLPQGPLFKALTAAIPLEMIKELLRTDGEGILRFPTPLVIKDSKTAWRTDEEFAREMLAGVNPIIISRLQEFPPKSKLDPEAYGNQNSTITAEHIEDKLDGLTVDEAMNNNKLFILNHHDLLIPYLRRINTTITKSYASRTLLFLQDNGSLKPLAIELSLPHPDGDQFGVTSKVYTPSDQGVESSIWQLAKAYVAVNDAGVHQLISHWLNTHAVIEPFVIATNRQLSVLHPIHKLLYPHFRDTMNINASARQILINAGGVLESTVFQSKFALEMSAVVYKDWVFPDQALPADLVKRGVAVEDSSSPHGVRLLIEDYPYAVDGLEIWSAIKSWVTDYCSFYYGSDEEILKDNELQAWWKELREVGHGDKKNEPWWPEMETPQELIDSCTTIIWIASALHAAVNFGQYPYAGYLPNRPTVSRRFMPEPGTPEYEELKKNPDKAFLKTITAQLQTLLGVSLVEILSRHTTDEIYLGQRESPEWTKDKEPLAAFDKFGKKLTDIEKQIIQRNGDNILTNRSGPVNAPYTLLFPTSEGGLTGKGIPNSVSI

With `CC(=O)N(O)C/C=C/c1cccc(Oc2ccccc2)c1` [N-(3-phenoxycinnamyl)acetohydroxamic acid], half-maximal inhibition against Lipoxygenase (IC50) required 17.1 µM. In other words, the double-digit micromolar range.

Regarding `CC(=O)N(O)CCCCCNC(=O)CCC(=O)N(O)CCCCCN1C(=O)c2cccc3cccc(c23)C1=O` [BIQD-substituted compound, S5], the IC50 (in general, the concentration that inhibits the measured activity by half) against Lipoxygenase came to 2340 µM; on Histone deacetylase 1 it was 314 µM.

As for `CC(=O)N(O)CCCCCN1C(=O)c2cccc3cccc(c23)C1=O` [BIQD-substituted compound, S2], the IC50 against Lipoxygenase came out at 58.9 µM; on Histone deacetylase 1, 172 µM.

In the case of `O=C(CCCCCN1C(=O)c2cccc3cccc(c23)C1=O)NO` [6-(1,3-Dioxo-1H,3H-benzo[de]isoquinolin-2-yl)-hexanoic acid hydroxyamide], at Lipoxygenase, the IC50 is 212 µM.

For `CC(=O)N(O)CCCCCNC(=O)CCC(=O)N(O)CCCCCNC(=O)CCC(=O)N(O)CCCCCN1C(=O)c2cccc3cccc(c23)C1=O` [BIQD-substituted compound, S1], on Histone deacetylase 1, the IC50 came out at 258 µM.
